Peptide text beside a SMILES is read from it.
Assays:
AT1R [1] = target: T1, AT1R (Homo sapiens, UniProt P30556); test: β-arrestin2 recruitment BRET (β-arrestin2-RLucII/rGFP-CAAX) in HEK293 cells expressing AT1R; type: cell-based; set-up: expressed in transfected cells; host or cells: HEK293 cells, transient PEI transfection; settings: for Emax βarr2 (% AngII): HEK293/AT1R, β-arrestin2 BRET, response of the ligand at 10 μM, normalised to AngII; for EC50: HEK293 cells transiently expressing AT1R, β-arrestin2-RLucII/rGFP-CAAX BRET, read 10 min after ligand, mean ± SEM of at least three to five independent experiments, SEM, read-out: EC50 βarr2
T1 sequence (P30556 1-359): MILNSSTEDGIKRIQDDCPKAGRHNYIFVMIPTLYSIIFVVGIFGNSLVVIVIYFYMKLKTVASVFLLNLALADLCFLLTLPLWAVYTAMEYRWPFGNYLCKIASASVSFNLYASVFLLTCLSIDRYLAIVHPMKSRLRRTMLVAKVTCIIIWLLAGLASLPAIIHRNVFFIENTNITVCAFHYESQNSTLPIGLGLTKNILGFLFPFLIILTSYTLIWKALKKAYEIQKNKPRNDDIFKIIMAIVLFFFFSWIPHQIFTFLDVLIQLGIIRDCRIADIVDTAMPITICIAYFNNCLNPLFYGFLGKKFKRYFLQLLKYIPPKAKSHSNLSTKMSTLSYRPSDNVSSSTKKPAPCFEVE
From the text: (§1) We utilized a clonal cell line HEK293, referred to hereafter as HEK293 cells, which has been previously described.[7],[8] As a gracious gift from A. Inoue (Tohoku University, Sendai, Miyagi, Japan), CRISPR Gαq/11 and Gα12/13 knockout cell lines (ΔGq/11 and ΔG12/13, respectively), were derived as previously explained.[48] In brief, a CRISPR-Cas9 system was used to target either GNAQ and GNA11 or GNA12 and GNA13 genes in HEK293T cells simultaneously to generate the Gαq/11 and Gα12/13 knockout cell lines. For the production of adenovirus, we utilized HEK293A cells. All cells were grown in DMEM supplemented with 10% FBS and Penicillin-Streptomycin-L-Glutamine (10000 IU penicillin, 10000 µg/mL Streptomycin, 200 mM L-Glutamine) at 37°C in T175 flasks under a 5% CO2 humidified chamber. Periodic testing was carried out for mycoplasma contamination (ABM™, Mycoplasma PCR Detection kit). For all biosensors used, cells underwent transfection with the PEI reagent, employing a PEI:DNA ratio of 3:1. For the Gαq biosensor, HEK293 cells were transfected with the plasmids coding for Gαq-RLucII (120 ng), Gβ1 (3000 ng), Gγ1-GFP10 (3000 ng), human AT1 (3000 ng) and Salmon sperm DNA (SSD) (880 ng). For the β-arrestin2 recruitment assay, HEK293 cells were transfected with the plasmids coding for 120 ng β-arrestin-2-RLucII, 3000 ng AT1, 3000 ng rGFP-CAAX, and 3880 ng SSD. For the measurement of PKC, HEK293 cells were transfected with 3000 ng AT1, 600 ng PKC-c1b, and 6400 ng SSD. […] 100 µL of the cell/DNA mixture was added to white 96-well plates and incubated at 37°C at 5% CO2 for 48 h. For the Rho assay, ΔG12/13 cells were seeded at a density of 9,000 cells per well in poly-ornithine-coated white 96-well plates and transfected the following day. In brief, 1 μg of total DNA in 100 μL of PBS was mixed with 100 μL of PBS containing 3 μL of 1 mg/mL PEI. For Rho signaling, 150 ng of AT1R DNA with 25 ng of PKN-RBD-RlucII [8], and 100 ng of rGFP-CAAX were used. Empty pcDNA was used to reach 1 µg of the total DNA amount in 100 μL of PBS. The DNA was then mixed with 100 μL of PBS containing 3 μL of 1 mg/mL PEI. After a 20-min incubation, the DNA/PEI complexes were dispensed into cells in 96-well plates (15 µL/well), and the experiment was carried out 48 h post-transfection.
(§2) On the day of the experiment, each well was washed with 80 µL of Tyrode’s buffer (140 mM NaCl, 2.7 mM KCl, 1 mM CaCl2, 12 mM NaHCO3, 5.6 mM D-glucose, 0.5 mM MgCl2, 0.37 mM NaH2PO4, 25 mM Hepes (pH 7.4)). This was followed by incubation for 1 h in Tyrode’s buffer at room temperature. For the Gαq, β-arrestin-2, and PKC biosensors used in HEK293 cells, coelenterazine 400A (at a final concentration of 5 μM) was added 10 min before stimulation. Cells were then stimulated with increasing doses of the indicated ligand, and BRET signals were measured using a Tristar2 (Berthold) microplate reader 10 min later. For the PKC and Rho biosensors in VSMCs, and the Rho biosensor in ΔG12/13 cells, cells were similarly stimulated with ligands for 1 min, 1 min 30 s, and 3 min, respectively, before BRET measurement. […] BRET signals were then measured using a Synergy2 (BioTek) microplate reader. The applied filter set was 410/80 nm and 515/30 nm, designed to detect the light emissions of RlucII (Renilla luciferase) (donor) and rGFP (acceptor), respectively.

AT1R [2] = target: T1, AT1R; test: Gαq activation BRET (GABY sensor) in HEK293 cells expressing AT1R; type: cell-based; set-up: expressed in transfected cells; host or cells: HEK293 cells, transient PEI transfection; settings: for Emax Gαq (% AngII): HEK293/AT1R, GABY BRET sensor, response of the ligand at 10 μM, normalised to AngII; for EC50: HEK293 cells transiently expressing human AT1R, Gαq-RlucII/Gβ1/Gγ1-GFP10 (GABY) BRET sensor, BRET read 10 min after ligand, mean ± SEM of at least three to five independent experiments
From the text: as §1, §2

Structure (SMILES)	Emax βarr2 (% AngII) (AT1R [1])	EC50 (AT1R [1])	Emax Gαq (% AngII) (AT1R [2])	EC50 (AT1R [2]; SEM)	EC50 (AT1R [2])
CC[C@H](C)[C@H](NC(=O)[C@H](Cc1ccc(O)cc1)NC(=O)[C@@H](NC(=O)[C@H](CCCN=C(N)N)NC(=O)[C@@H](N)CC(=O)O)C(C)C)C(=O)N[C@@H](Cc1c[nH]cn1)C(=O)N1CCC[C@H]1C(=O)N[C@@H](Cc1ccc(O)cc1)C(=O)O [24c] (H-DRVYIHPY-OH)		2.6 ± 0.8 nM		4.2 ± 1.3 nM	
CCCC[C@H](NC(=O)[C@@H]1CCCN1C(=O)[C@H](Cc1c[nH]cn1)NC(=O)[C@@H](NC(=O)[C@H](Cc1ccc(O)cc1)NC(=O)[C@@H](NC(=O)[C@H](CCCNC(=N)N)NC(=O)[C@@H](N)CC(=O)O)C(C)C)[C@@H](C)CC)C(=O)O [compound 2]	92 % AngII	0.86 ± 0.16 nM	36 % AngII	3 ± 3.6 nM	
CC[C@H](C)[C@H](NC(=O)[C@H](Cc1ccc(O)cc1)NC(=O)[C@@H](NC(=O)[C@H](CCCNC(=N)N)NC(=O)[C@@H](N)CC(=O)O)C(C)C)C(=O)N[C@@H](Cc1c[nH]cn1)C(=O)N1CCC[C@H]1C(=O)N[C@H](C(=O)O)C(C)(C)C [compound 3]	81 % AngII	2.3 ± 0.4 nM	19 % AngII	0.36 ± 0.84 nM	
CC[C@H](C)[C@H](NC(=O)[C@H](Cc1ccc(O)cc1)NC(=O)[C@@H](NC(=O)[C@H](CCCNC(=N)N)NC(=O)[C@@H](N)CC(=O)O)C(C)C)C(=O)N[C@@H](Cc1c[nH]cn1)C(=O)N1CCC[C@H]1C(=O)N[C@@H](CC1CCCCC1)C(=O)O [compound 4]	95 % AngII	1.4 ± 0.2 nM	52 % AngII	5.5 ± 3.9 nM	
CC[C@H](C)[C@H](NC(=O)[C@H](Cc1ccc(O)cc1)NC(=O)[C@@H](NC(=O)[C@H](CCCNC(=N)N)NC(=O)[C@@H](N)CC(=O)O)C(C)C)C(=O)N[C@@H](Cc1c[nH]cn1)C(=O)N1CCC[C@H]1C(=O)N[C@@H](CCC(=O)O)C(=O)O [compound 6] (H-DRVYIHPE-OH; N-terminus assumed)	63 % AngII	957 ± 111 nM			> 10000 nM
CC[C@H](C)[C@H](NC(=O)[C@H](Cc1ccc(O)cc1)NC(=O)[C@@H](NC(=O)[C@H](CCCNC(=N)N)NC(=O)[C@@H](N)CC(=O)O)C(C)C)C(=O)N[C@@H](Cc1c[nH]cn1)C(=O)N1CCC[C@H]1C(=O)N[C@@H](CCC(N)=O)C(=O)O [compound 7] (H-DRVYIHPQ-OH; N-terminus assumed)	56 % AngII	158 ± 20 nM			> 10000 nM

The remaining lines, values ahead:

Emax βarr2 (% AngII) (AT1R [1])	EC50 (AT1R [1])	Emax Gαq (% AngII) (AT1R [2])	EC50 (AT1R [2]; SEM)	EC50 (AT1R [2])	Structure (SMILES)
93 % AngII	2.8 ± 0.6 nM	49 % AngII	4.6 ± 3 nM		CC[C@H](C)[C@H](NC(=O)[C@H](Cc1ccc(O)cc1)NC(=O)[C@@H](NC(=O)[C@H](CCCNC(=N)N)NC(=O)[C@@H](N)CC(=O)O)C(C)C)C(=O)N[C@@H](Cc1c[nH]cn1)C(=O)N1CCC[C@H]1C(=O)N[C@@H](Cc1cccc(O)c1)C(=O)O [24b]
105 % AngII		89 % AngII			CC[C@H](C)[C@H](NC(=O)[C@H](Cc1ccc(O)cc1)NC(=O)[C@@H](NC(=O)[C@H](CCCNC(=N)N)NC(=O)[C@@H](N)CC(=O)O)C(C)C)C(=O)N[C@@H](Cc1c[nH]cn1)C(=O)N1CCC[C@H]1C(=O)N[C@@H](Cc1ccc(O)cc1)C(=O)O [24c] (H-DRVYIHPY-OH)
45 % AngII	4560 ± 3880 nM			> 10000 nM	CC[C@H](C)[C@H](NC(=O)[C@H](Cc1ccc(O)cc1)NC(=O)[C@@H](NC(=O)[C@H](CCCNC(=N)N)NC(=O)[C@@H](N)CC(=O)O)C(C)C)C(=O)N[C@@H](Cc1c[nH]cn1)C(=O)N1CCC[C@H]1C(=O)N[C@@H](CCCN)C(=O)O [compound 5]
101 % AngII	2.1 ± 0.4 nM	61 % AngII	8.3 ± 5.1 nM		CC[C@H](C)[C@H](NC(=O)[C@H](Cc1ccc(O)cc1)NC(=O)[C@@H](NC(=O)[C@H](CCCNC(=N)N)NC(=O)[C@@H](N)CC(=O)O)C(C)C)C(=O)N[C@@H](Cc1c[nH]cn1)C(=O)N1CCC[C@H]1C(=O)N[C@@H](Cc1cccc2ccccc12)C(=O)O [compound 8]
97 % AngII	1 ± 0.3 nM	69 % AngII	3.9 ± 1.9 nM		CC[C@H](C)[C@H](NC(=O)[C@H](Cc1ccc(O)cc1)NC(=O)[C@@H](NC(=O)[C@H](CCCNC(=N)N)NC(=O)[C@@H](N)CC(=O)O)C(C)C)C(=O)N[C@@H](Cc1c[nH]cn1)C(=O)N1CCC[C@H]1C(=O)N[C@@H](Cc1ccc2ccccc2c1)C(=O)O [compound 9]
100 % AngII	7.4 ± 1.9 nM	48 % AngII	17 ± 10 nM		C=CCOc1ccc(C[C@H](NC(=O)[C@@H]2CCCN2C(=O)[C@H](Cc2c[nH]cn2)NC(=O)[C@@H](NC(=O)[C@H](Cc2ccc(O)cc2)NC(=O)[C@@H](NC(=O)[C@H](CCCNC(=N)N)NC(=O)[C@@H](N)CC(=O)O)C(C)C)[C@@H](C)CC)C(=O)O)cc1 [compound 10]
98 % AngII	15 ± 4 nM	45 % AngII	16 ± 12 nM		CC[C@H](C)[C@H](NC(=O)[C@H](Cc1ccc(O)cc1)NC(=O)[C@@H](NC(=O)[C@H](CCCNC(=N)N)NC(=O)[C@@H](N)CC(=O)O)C(C)C)C(=O)N[C@@H](Cc1c[nH]cn1)C(=O)N1CCC[C@H]1C(=O)N[C@@H](Cc1ccc(-c2ccccc2)cc1)C(=O)O [compound 13]
109 % AngII	6.7 ± 0.8 nM	99 % AngII	7.9 ± 1.7 nM		CC[C@H](C)[C@H](NC(=O)[C@H](Cc1ccc(O)cc1)NC(=O)[C@@H](NC(=O)[C@H](CCCNC(=N)N)NC(=O)[C@@H](N)CC(=O)O)C(C)C)C(=O)N[C@@H](Cc1c[nH]cn1)C(=O)N1CCC[C@H]1C(=O)N[C@H](C(=O)O)C(c1ccccc1)c1ccccc1 [compound 15]
